Experimental data reported in patent US6416965B2, “Screening methods for presqualene disphosphate analogs” (Brigham and Women's Hospital, priority 1997, dated 2002).

Tests used:
[1] = system: electroporated neutrophils; experiment: Superoxide anion generation (NADPH oxidase activity) by electroporated neutrophils; assay type: cell-based, human
Text: To test the impact of compounds VI and VIII on neutrophil responses, the isolated lipids were introduced into neutrophils by electroporation prior to determining NADPH oxidase activity. […] Prenyl cysteine analogues can disrupt G-protein interaction with activated FMLP receptors (Scheer, A. & Gierschik, P. Biochemistry. 34,4952-4961 (1995), the teachings of which are incorporated herein by reference); therefore to determine compound VI's level of action, neutrophil superoxide anion generation was examined in the presence of phorbol 12-myristate 13-acetate (PMA), a potent trigger for O2- production which bypasses cell surface receptors to stimulate protein kinase C and subsequent NADPH assembly (see for example, Baggiolini, M., Boulay, F., Badwey, J. A. & Curnutte, J. T. FASEB J. 7, […] (1993); FIG. 3c).
After electroporation, cells in cytochrome c (0.7 mg/ml) were exposed (10 min, 37° C.) to PMA (10^−7 M), FMLP (10^−7 M) plus cytochalasin b (15 μg/ml), compound VI (1 μM) or compound VIII (1 μM) and supernatants monitored at 550 nm. Values represent the mean±SEM for n≧4.
(§1) Neutrophils (10^7/500 μl) were electroporated (1.65 kV/cm, 250 μF, Ω∞, Invitrogen Electroporator VI) at 0° C. in the presence of 10−^9-10−^6 M compound VI, VIII, FDP, FMP, squalene or vehicle (ethanol 0.2%). After electroporation, cells, in cytochrome c (0.7 mg/ml), were exposed (10 minutes, 37° C.) to either cytochalasin b (5 μg/mL) and FMLP (10^−7 M)(a) or PMA ((10^−7 M)(b) and supernatants monitored at […]. Electroporation gave a 49.9% reduction in FMLP-stimulated NADPH oxidase compared to naive cells. Values (FIGS. 4a and 4b) represent the mean±SEM for n≧3, d≧6. For adhesion (FIGS. 4c and 4d), changes in light transmittance were monitored (as in Fiore, S., Nicolaou, K. C., Caulfield, T., Kataoka, H. & Serhan, C. N. Biochem. J. 266, 25-31 (1990), the teachings of which are incorporated herein by reference) after addition of compounds VI, VIII (1.6 μM) or vehicle (0.5 min) and FMLP (0.5-5 μM) (2.5 min). Cell viability remained>99%. Values represent the mean±SEM for n=3, d=9. 1,4,5-inositol-triphosphate levels were determined (Amersham) in fresh PMN (10^7 cells) exposed (5 minutes, 37° C.) to compound VI, compound VIII (1 μM) or vehicle and stimulated with FMLP (10^−7M, 37° C.) (as in FIG. 4e). % Inhibition after 10 second exposure to FMLP is reported as mean±SEM for n=4, d≧8. *p <0.05 in Student's paired t-test compared with control, while “NS” indicates no significant change compared to incubations in the presence of vehicle (ethanol 0.2%) alone. Stereochemistry of PSDP and PSMP (FIG. 4f) were assigned by routine methods (Poulter, C. D. and Rilling, H. C. Acc. Chem. Res. 11, 307-313, (1978), the teachings of which are hereby incorporated by reference).

neutrophil sonicates = conditions: Levy et al., Nature 1997; cited from earlier work
Gst-Grb2 fusion protein = molecular target: T1, Gst-Grb2 fusion protein (Homo sapiens, UniProt P62993); experiment: PSDP equilibrium binding assay to GST-GRB2
T1 construct: purchased Upstate Biotechnology 14-128
T1 sequence (P62993 whole entry, the tested form may be a part): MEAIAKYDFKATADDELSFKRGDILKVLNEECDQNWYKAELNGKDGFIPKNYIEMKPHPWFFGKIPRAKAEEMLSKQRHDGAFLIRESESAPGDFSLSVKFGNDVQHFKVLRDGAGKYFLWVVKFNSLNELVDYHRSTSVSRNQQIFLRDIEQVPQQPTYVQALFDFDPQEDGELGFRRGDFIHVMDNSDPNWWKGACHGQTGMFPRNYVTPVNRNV
Method: Equilibrium binding was determined for ^32PO4-PSDP (1 μM) to the adaptor protein, Grb2, which is known to carry two SH3 domains and one SH2 domain (Lowenstein, EJ, et al., Cell, 1992; 70:431). […] Bound material was separated from unbound by spin filtration (0.2 μm) and quantitated by scintillation counting.
To 100 μl of 0.9% NaCl was added 2 μg GST-GRB2 with 0-100 μg compound (e.g., delipidated human serum albumin, SH3-bearing SOS peptide or unlabeled PSDP) to be tested. The samples were prepared directly in the top of PGC spin filter tubes.
To the solution was added radiolabeled-PSDP in 1 μl ethanol. The mixture was vortexed and incubated at 37° C. for 30 minutes. After the incubation period, the sample was centrifuged at 2000 rpm at 25° C. for 3 minutes. […] The filter was removed, placed in a scintillation vial and the amount of radioactivity bound to the trapped agarose complex (i.e., bound material) was determined.
1 ml of CHCl3:MeOH (2:1) was added to the filtrate (a clear interface should be evident). […] At this stage, dependent upon the amount of radioactivity present, the radioactivity of the sample was determined either in scintillation fluid or by phosphoimage after TLC. […]
Bound material is reflected in the filtrate by loss of radioactivity when radiolabeled material is incubated in the presence of the GRB2 complex compared to the absence of the agarose complex. […]

neutrophils [2] = experiment: fMLP-stimulated intracellular calcium mobilization in FURA-2 loaded neutrophils; assay type: cell-based, human; conditions: PSDP 1 μM, 5 min 37° C.; 1 nM fMLP; EDTA 5 mM
Method: Inositol trisphosphate is known to be an important intracellular mediator of calcium mobilization from intracellular stores, a critical event in cellular activation (Exton, JH, Annual Review of Pharmacology and Toxicology 1996; 36:481). In order to determine the functional importance of the PSDP-mediated reduction in IP3 levels, fMLP-stimulated intracellular calcium mobilization in the presence of polyisoprenyl phosphates was measured. FURA-2 (1 μM) loaded neutrophils (10×10^6/2 ml) in the presence of EDTA (5 mM) were exposed (5 min, 37° C.) to PSDP (10−^5-10−^6 M) or EtOH (0.1%), followed by 1 nM fMLP. […] This inhibition was concentration dependent FIG. 7 and significant (n=3, mean±SEM, *P<0.05 by Student's t-test).

neutrophils [3] = experiment: Neutrophil homotypic adhesion (aggregation, light transmittance); assay type: cell-based, human
Method: as §1

CC(C)=CCC/C(C)=C/CC/C(C)=C/C1C(COP(=O)(O)OP(=O)(O)O)C1(C)CC/C=C(\C)CCC=C(C)C (stereo in doubt) [Compound VI, presqualene diphosphate]
inhibition of PMA activated superoxide anion generation at 10 nM ([1]; compound 10 nM, PMA 100 nM): significant inhibition still present
inhibition of PMA activated superoxide anion generation ([1]; compound 1 μM, PMA 100 nM): 44%
inhibition of neutrophil superoxide anion generation ([1]; nM-μM amounts): inhibited
inhibition of the FMLP-triggered generation of superoxide anion ([1]; nM-μM quantities introduced by electroporation, FMLP 10^-7 M plus cytochalasin b): 60%
stimulation of O2- production by the compound alone ([1]; no agonist, 1 μM (FIG. 3c)): neither compound VI nor VIII alone stimulated
inhibition of phosphatidate mediated superoxide anion generation in human neutrophil sonicates (neutrophil sonicates): inhibited
binding of radiolabeled PSDP to Gst-Grb2 complexed to agarose beads (Gst-Grb2 fusion protein; 32PO4-PSDP 1 μM, 20 min 37° C.): bound
competition of radioligand (32PO4-PSDP) off Gst-Grb2 (Gst-Grb2 fusion protein; excess unlabeled PSDP, albumin 50 μg, Sos 50 μg): could be competed off
inhibition of fMLP-stimulated [Ca2+]i mobilization (neutrophils [2]): inhibition
stimulation of adhesion by the compound alone (neutrophils [3]; no agonist): neither compound VI nor VIII alone stimulated
inhibition of FMLP-stimulated homotypic adhesion (neutrophils [3]; μM levels): inhibited
inhibition of the aggregatory response to FMLP (homotypic adhesion) (neutrophils [3]; μM levels (1.6 μM), FMLP 0.5-5 μM, intact cells, p<0.001): 63%
